Assay results: patent US6498254B1, “Antiretroviral compounds and compositions” (Uniroyal Chemical Company, Inc., priority 2001, dated 2002)
≈ marks a conversion by molar mass, not a printed value. Read-outs that look alike come from different tables or passages of the source.

How the values were obtained:
HIV-1 (IIIB) = test: Inhibition of HIV-1 syncytium formation in CEM cells; format: cell-based; details: for HIV-1 % Protection: protection of CEM cells against virus-induced cytopathicity at the compound concentration in the previous column; for EC50: read-out: EC50 (μg/ml) HIV-1
Text: (§1) The cell type used to determine activity of the compounds of the invention herein, i.e., the test compounds, against HIV was human T-lymphoblast (CEM) cells obtained from the American Tissue Cell Culture Collection (Rockville, Md.). HIV-1 (IIIB) was originally obtained from the culture of persistently HIV-1 infected H9 cells and was provided by R. C. Gallo and M. Popovic (National Cancer Institute, National Institutes of Health, Bethesda, Md.). HIV-2 (ROD) was originally obtained from L. M. Montagnier (Pasteur Institute, Paris, France).
(§2) To determine the antiviral activity of the test compounds, CEM cells were suspended at a cell density of approximately 300,000 cells per ml of culture medium and infected with approximately 100 CClD50 (100 CClD50 being the 50% cell culture infective dose) of HIV-1 (IIIB) or HIV-2 (ROD)). Then 100 μl of the infected cell suspensions was added to 200 μl micro titer plate wells containing 100 μl of appropriate serial (5-fold) dilutions of the test compounds. The inhibitory effect of the test compounds on HIV-1 or HIV-2 syncytium formation in CEM cells was examined microscopically on day four post infection. The 50% effective concentration (EC50) was defined as the test compound concentration that inhibits syncytium formation in the HIV-1 or HIV-2 infected cell cultures by 50%.
(§3) In some cases, the compounds had considerable cytotoxicity to CEM cells which made determination of the EC50 difficult. In these cases, the percent protection of the cells against virus-induced cytopathicity by the test compounds at the indicated compound concentration in the previous column is given.

HIV-2 (ROD) = test: Inhibition of HIV-2 syncytium formation in CEM cells; format: cell-based; details: for HIV-2 % Protection: protection of CEM cells against virus-induced cytopathicity at the compound concentration in the previous column; for EC50: Human immunodeficiency virus 2, CCRF-CEM, read-out: EC50 (μg/ml) HIV-2
Text: as §1, §2, §3

CMV Davis strain = test: Activity against HCMV: virus-induced cytopathicity in HEL cells; format: cell-based, human cytomegalovirus (HCMV); details: for Antiviral % Inhibition Davis strain: estimate of percent protection of HEL cells at the compound concentration; for IC50: read-out: Antiviral IC50 (μg/ml) Davis strain
Experimental: Confluent HEL cells grown in […] microtiter plates were inoculated with CMV at an input of 100 PFU (plaque forming units) per well. After a one to two hour incubation period, residual virus was removed and the infected cells were further incubated with MEM (Minimal Essential Medium) (supplemented with 2% inactivated Fetal Calf Serum (FCS), […], and 0.3% sodium bicarbonate) containing varying concentrations of the test compounds. Antiviral activity was expressed as EC50 (50% effective concentration), or test compound concentration required to reduce virus-induced cytopathicity after seven days by 50% compared to the untreated control.
In some cases, the compounds had considerable cytotoxicity against HEL cells, which made determination of the EC50's difficult. In these cases, an estimate of the percent protection at the compound concentration indicated in the previous columns is given.

[1] = CMV-infected HEL cells, virus-induced cytopathicity after seven days
[2] = HIV-1 (IIIB) infected CEM cells, syncytium formation, day four post infection
[3] = HIV-2 (ROD) infected CEM cells, syncytium formation, day four post infection
[4] = Human immunodeficiency virus 1, CCRF-CEM, HIV-1 (IIIB) infected CEM cells, syncytium formation, day four post infection
[5] = Human betaherpesvirus 5, 168 h, CMV-infected HEL cells, virus-induced cytopathicity after seven days
[6] = Human immunodeficiency virus 1, IIIB, CCRF-CEM
[7] = Human betaherpesvirus 5, HEL, 168 h

| Compound | HIV-2 % Protection (HIV-2 (ROD)) [%] | Antiviral % Inhibition Davis strain (CMV Davis strain) [%] | EC50 (HIV-1 (IIIB); [4]) [µg/mL] | EC50 (HIV-2 (ROD); [3]) [µg/mL] | IC50 (CMV Davis strain; [5]) [µg/mL] | other results |
| --- | --- | --- | --- | --- | --- | --- |
| 1,4-xylyl-bis-2-sulfonyl pyridine-N-oxide [Compound 23] | 37.5 | 20.0 | – | – | – | HIV-1 % Protection (HIV-1 (IIIB)): 37.5%; Antiviral IC50 (μg/ml) Davis strain (CMV Davis strain; [1]): >20 µg/mL |
| 1,4[1,2,4,5-tetramethylbenzyl]-bis-(2′-sulfonylpyridine-N-oxide) [Compound 25] | 37.5 | – | – | – | – | EC50 (μg/ml) HIV-1 (HIV-1 (IIIB); [2]): 10.00 µg/mL; Antiviral IC50 (μg/ml) Davis strain (CMV Davis strain; [1]): 16.0 µg/mL |
| 2-(2,5-dimethylphenyl)methylsulfinyl)pyridine [Compound 163] | 0.0 | 0.0 | – | – | – | EC50 (μg/ml) HIV-1 (HIV-1 (IIIB); [2]): 3.25 µg/mL; EC50 (μg/ml) HIV-2 (HIV-2 (ROD); [3]): >100 µg/mL; Antiviral IC50 (μg/ml) Davis strain (CMV Davis strain; [1]): >50 µg/mL |
| 2-[(3-methoxy-4-benzyloxy)phenylmethylsulfonyl]pyridine-N-oxide [Compound 61] | 6.0 | – | – | – | – | EC50 (μg/ml) HIV-1 (HIV-1 (IIIB); [2]): >4 µg/mL; HIV-1 % Protection (HIV-1 (IIIB)): 0.0%; EC50 (μg/ml) HIV-2 (HIV-2 (ROD); [3]): >4.0 µg/mL; Antiviral IC50 (μg/ml) Davis strain (CMV Davis strain; [1]): 14.0 µg/mL |
| Cc1ccc(N)cc1C(C)S(=O)(=O)c1cccc[n+]1[O-] (stereo not shown) [Compound 1, 2-[[1-(5-amino-2-methylphenyl)ethyl]sulfonyl]pyridine-N-oxide] | – | 0.0 | 20 (≈ 68.4 µM) | 41 (≈ 140 µM) | > 50 | – |
| CCC(C)(C)c1ccc(CS(=O)(=O)c2cccc[n+]2[O-])cc1 [Compound 40, 2-(4′-tert-pentylphenylmethylsulfonyl)pyridine-N-oxide] | – | – | 3.1 (≈ 9.7 µM) | 3.4 (≈ 10.6 µM) | 1.5 (≈ 4.7 µM) | – |
| O=S(=O)(Cc1c2ccccc2cc2ccccc12)c1cccc[n+]1[O-] [Compound 51, 2[1-(9-anthryl)methylsulfonyl]pyridine-N-oxide] | 0.0 | – | > 0.8 | > 0.8 | 1.3 (≈ 3.72 µM) | HIV-1 % Protection (HIV-1 (IIIB)): 0.0% |
| Cc1ccc([N+](=O)[O-])c(CS(=O)(=O)c2cccc[n+]2[O-])c1 [Compound 62, 2-[[(2-nitro-5-methylphenyl)methyl]sulfonyl]pyridine-N-oxide] | – | 20.0 | 1.9 (≈ 6.16 µM) | 5 (≈ 16.2 µM) | > 5 | – |
| CC(C)c1cc(CS(=O)(=O)c2cccc[n+]2[O-])c(C(C)C)cc1Br [Compound 63, 2-[[[2,5-bis(1-methylethyl)-4-bromophenyl]methyl]sulfonyl]pyridine-N-oxide] | – | – | 2.3 (≈ 5.58 µM) | 2.5 (≈ 6.06 µM) | 3.7 (≈ 8.97 µM) | – |
| O=[N+]([O-])c1cc(CS(=O)(=O)c2cccc[n+]2[O-])cc([N+](=O)[O-])c1 [Compound 65, 2-[[(3,5-dinitrophenyl)methyl]sulfonyl]pyridine-N-oxide] | – | – | 2.8 (≈ 8.25 µM) | 3.5 (≈ 10.3 µM) | 5 (≈ 14.7 µM) | – |
| Cc1cc(CS(=O)(=O)c2cccc[n+]2[O-])ccc1[N+](=O)[O-] [Compound 66, 2-[[(3-methyl-4-nitrophenyl)methyl]sulfonyl]pyridine-N-oxide] | – | – | 3.1 (≈ 10.1 µM) | 2.5 (≈ 8.11 µM) | 5 (≈ 16.2 µM) | – |
| Cc1ccc(CS(=O)(=O)c2cccc[n+]2[O-])cc1[N+](=O)[O-] [Compound 67, 2-[[(3-nitro-4-methylphenyl)methyl]sulfonyl]pyridine-N-oxide] | – | 20.0 | 2.3 (≈ 7.46 µM) | 2.4 (≈ 7.78 µM) | > 50 | – |
| O=[N+]([O-])c1ccc(CS(=O)(=O)c2cccc[n+]2[O-])c(Cl)c1 [Compound 69, 2-[[(2-chloro-4-nitrophenyl)methyl]sulfonyl]pyridine-N-oxide] | – | 20.0 | 2.9 (≈ 8.82 µM) | 2.9 (≈ 8.82 µM) | > 5 | – |
| Cc1ccc(C)c(C(Cl)S(=O)(=O)c2cccc(C)[n+]2[O-])c1 (stereo not shown) [Compound 73, 2-[(2,5-dimethylphenyl)chloromethylsulfonyl]-6-methylpyridine-N-oxide] | 0.0 | 40.0 | 2.8 (≈ 8.59 µM) | > 100 | > 20 | – |
| Cc1ccc(C)c(CS(=O)(=O)c2cccc(Cl)[n+]2[O-])c1 [Compound 77, 2-(2,5-dimethylphenylmethylsulfonyl)-6-chloropyridine-N-oxide] | 0.0 | – | 0.7 (≈ 2.25 µM) | > 0.8 | 11 (≈ 35.3 µM) | – |
| CCc1cccc2c(C)cc(S(=O)(=O)C(C)c3ccccc3)nc12 (stereo not shown) [Compound 107, 8-ethyl-4-methyl-2-[(1-phenylethyl)sulfonyl]quinoline] | – | 0.0 | 0.65 (≈ 1.91 µM) | > 100 | > 20 | – |
| COCC(c1cc(C)ccc1C)S(=O)(=O)c1ccccn1 (stereo not shown) [Compound 123, 2-[[1-(2,5-dimethylphenyl)-2-methoxyethyl]sulfonyl]pyridine] | 0.0 | 40.0 | 60 (≈ 196 µM) | > 100 | > 50 | – |
| Cc1ccc(C)c(C(C)S(=O)(=O)c2c(Cl)ccc[n+]2[O-])c1 (stereo not shown) [Compound 124, 3-chloro-2-[[1-(2,5-dimethylphenyl)ethyl]sulfonyl]pyridine-N-oxide] | 0.0 | 10.0 | > 0.8 | > 0.8 | > 5 | HIV-1 % Protection (HIV-1 (IIIB)): 0.0% |
| Cc1ccc(C)c(C(Cl)S(=O)(=O)c2c(Cl)ccc[n+]2[O-])c1 (stereo not shown) [Compound 125, 3-chloro-2-[[chloro-(2,5-dimethylphenyl)methyl]sulfonyl]pyridine-N-oxide] | 0.0 | – | > 4 | > 4 | 31.5 (≈ 91 µM) | HIV-1 % Protection (HIV-1 (IIIB)): 0.0% |
| [O-][n+]1cccc(Cl)c1SCc1ccccc1 [Compound 132, 3-chloro-2-[(phenylmethyl)thio]pyridine-N-oxide] | 0.0 | 0.0 | – | – | – | EC50 (HIV-1 (IIIB); [6]): 2.4 µg/mL (≈ 9.53 µM); EC50 (HIV-2 (ROD)): > 20 µg/mL; IC50 (CMV Davis strain; [7]): > 50 µg/mL |
| Cc1ccc(C)c(CSc2c(Cl)ccc[n+]2[O-])c1 [Compound 133, 3-chloro-2-[[(2,5-dimethylphenyl)methyl]thio]pyridine-N-oxide] | 0.0 | – | – | – | – | EC50 (HIV-1 (IIIB); [6]): 0.14 µg/mL (≈ 0.5 µM); EC50 (HIV-2 (ROD)): > 20 µg/mL; IC50 (CMV Davis strain; [7]): 25 µg/mL (≈ 89.4 µM) |
